Laboratory results reported in patent US20030068286A1, “Self-tanning compositions having improved coloration using 3,5-dimethoxy-4-hydroxybenzaldehyde and 1,3-dihydroxyacetone” (priority 2001, published 2003).

Experiments:
[1] = test system: skin; test: Skin coloration by the Maillard reaction (self-tanning) after application to the skin; format: in vivo; details: for coloration produced in the skin: applied to the skin, melanoidins in the upper layers of skin
Procedure: The secondary compound, 3,5-dimethoxy-4-hydroxybenzaldehyde, is applied to the skin along with DHA.
Over time, the chemical stability of unprotected DHA is reduced, producing undesirable chemical compounds such as methylglyoxal and formic acid. […] The Maillard reaction produced by the DHA take sup to 5 hours to produce melanoidins, or colored compounds, in the upper layers of the skin. By the time an undesirable coloration develops, the wearer is helpless to remove or adjust the coloration, and must wait until their upper layers of skin are shed in order to rid themselves of the off-color.
FIG. 1 illustrates the chemical structure of 3,5-dimethoxy-4-hydroxybenzaldehyde. Structurally, this compound is a vanillin, or a hydroxymethoxybenzaldehyde.

[2] = Water solubility
From the text: The 3,5-dimethoxy-4-hydroxybenzaldehyde, as a water-insoluble aldehyde, is chemically compatible with water-soluble DHA. The compounds exist in two separate phases of a cosmetic formulation, the water phase and the oil phase.

SMILES | coloration produced in the skin [1] | Maillard reaction rate relative to DHA ([1]; compared with DHA, attributed to larger molecular size and longer penetration time into the skin) | water solubility [2] | coloration produced on the skin by degraded DHA ([1]; degraded or "stale" DHA applied to the skin) | time of the Maillard reaction to produce melanoidins in the upper layers of the skin ([1]; in vivo)
COc1cc(C=O)cc(OC)c1O [3,5-dimethoxy-4-hydroxybenzaldehyde] | olive-green | slightly slower | water-insoluble |  | 
O=C(CO)CO [DHA, 1,3-dihydroxyacetone] | orange-brown |  |  | orange coloration | up to 5 hours
CCOc1cc(C=O)ccc1O [ethylvanillin] | do not produce similar coloration or any Maillard reaction mechanism |  |  |  | 
COc1cccc(C=O)c1O [ortho-vanillin] | do not produce similar coloration or any Maillard reaction mechanism |  |  |  | 
